Measurements reported in ChEMBL document CHEMBL5131534, “Identification of 2-Pyridinylindole-Based Dual Antagonists of Toll-like Receptors 7 and 8 (TLR7/8)” (ACS Med Chem Lett, 2022).
pIC50: −log10 of the molar value.

biological target: T1, Toll-like receptor 7 (Homo sapiens, UniProt Q9NYK1); experiment: Antagonist activity at gardiquimod stimulated human TRL7 overexpressed in HEK293 cells assessed as inhibition of NF kappa B/Ap-1 activation preincubated with compound for 30 mins followed by gardiquimod stimulation measured after 22 hrs by SEAP reporter assay; type: cell-based; conditions: not given
T1 sequence (Q9NYK1 whole entry): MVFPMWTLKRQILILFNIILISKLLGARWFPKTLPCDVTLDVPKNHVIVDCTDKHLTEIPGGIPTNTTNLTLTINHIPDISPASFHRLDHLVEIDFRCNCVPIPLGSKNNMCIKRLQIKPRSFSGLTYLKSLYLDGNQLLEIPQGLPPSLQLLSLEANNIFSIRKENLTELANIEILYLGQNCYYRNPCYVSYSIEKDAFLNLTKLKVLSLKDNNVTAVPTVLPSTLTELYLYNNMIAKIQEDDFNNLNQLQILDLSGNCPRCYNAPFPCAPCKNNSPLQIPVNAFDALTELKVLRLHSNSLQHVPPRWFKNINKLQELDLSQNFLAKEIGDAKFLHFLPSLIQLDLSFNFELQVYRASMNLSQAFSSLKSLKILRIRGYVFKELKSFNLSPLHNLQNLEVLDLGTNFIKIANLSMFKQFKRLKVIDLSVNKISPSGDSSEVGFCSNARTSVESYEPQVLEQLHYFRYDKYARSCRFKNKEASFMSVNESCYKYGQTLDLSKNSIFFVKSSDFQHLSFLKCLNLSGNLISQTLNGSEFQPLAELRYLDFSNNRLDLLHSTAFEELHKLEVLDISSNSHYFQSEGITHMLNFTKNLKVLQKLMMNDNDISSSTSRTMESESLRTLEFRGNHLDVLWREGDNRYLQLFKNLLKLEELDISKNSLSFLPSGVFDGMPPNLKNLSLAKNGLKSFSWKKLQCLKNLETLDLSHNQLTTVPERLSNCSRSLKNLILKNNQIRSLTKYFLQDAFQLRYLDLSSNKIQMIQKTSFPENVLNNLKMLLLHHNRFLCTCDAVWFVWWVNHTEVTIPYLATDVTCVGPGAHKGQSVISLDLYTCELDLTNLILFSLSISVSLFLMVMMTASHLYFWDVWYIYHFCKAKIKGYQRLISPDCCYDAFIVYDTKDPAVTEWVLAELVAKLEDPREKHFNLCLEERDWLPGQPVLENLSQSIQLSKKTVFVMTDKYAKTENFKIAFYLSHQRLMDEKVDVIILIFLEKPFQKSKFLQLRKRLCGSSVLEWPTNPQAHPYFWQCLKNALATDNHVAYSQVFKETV

**Q.** With `Cc1cc(-c2[nH]c3cc(C)c(C4CCNCC4)cc3c2C(C)C)ccn1` as the molecule, how does the pIC50 read?
**A.** 8.09

**Q.** With `CC(C)c1c(-c2ccncc2CO)[nH]c2ccc(C3CCNCC3)cc12` as the molecule, how does the pIC50 read?
**A.** 6.70

**Q.** With `CCc1cc(-c2[nH]c3ccc(C4CCNCC4)cc3c2C(C)C)cc(C)n1` as the molecule, how does the pIC50 read?
**A.** 7.24

**Q.** With `CC(C)c1c(-c2ccnc(C3CC3)c2)[nH]c2ccc(C3CCNCC3)cc12` as the molecule, how does the pIC50 read?
**A.** 7.04

**Q.** With `CNCCN1CCC(c2ccc3[nH]c(-c4cccnc4)c(C)c3c2)CC1` as the molecule, how does the pIC50 read?
**A.** < 5.00

**Q.** With `CNCCN1CCC(c2ccc3[nH]c(-c4cccc(OC)n4)c(C)c3c2)CC1` as the molecule, how does the pIC50 read?
**A.** < 5.00

**Q.** With `Cc1cc(-c2[nH]c3ccc(C4CCNCC4)c(F)c3c2C(C)C)cc(C)n1` as the molecule, how does the pIC50 read?
**A.** 9.05

**Q.** With `CNCCN1CCC(c2ccc3[nH]c(-c4ccc(OC)nc4)c(C)c3c2)CC1` as the molecule, how does the pIC50 read?
**A.** < 5.00

**Q.** With `CC(C)c1c(-c2ccncc2)[nH]c2ccc(C3CCNCC3)cc12` as the molecule, how does the pIC50 read?
**A.** 7.54

**Q.** With `CNCCN1CCC(c2ccc3[nH]c(-c4cncc(OC)c4)c(C)c3c2)CC1` as the molecule, how does the pIC50 read?
**A.** 5.48

**Q.** With `CCc1c(-c2ccnc(C)c2)[nH]c2cc(F)c(C3CCNCC3)c(F)c12` as the molecule, how does the pIC50 read?
**A.** 7.89

**Q.** With `Cc1cc(-c2[nH]c3cc(F)c(C4CCNCC4)cc3c2C(C)C)ccn1` as the molecule, how does the pIC50 read?
**A.** 9.10

**Q.** With `Cc1nc(C)c(C)c(-c2[nH]c3ccc(C4CCNCC4)cc3c2C(C)C)c1C` as the molecule, how does the pIC50 read?
**A.** 6.52

**Q.** With `CCc1c(-c2ccnc(C)c2)[nH]c2ccc(C3CCNCC3)cc12` as the molecule, how does the pIC50 read?
**A.** 7.62

**Q.** With `COc1cc(-c2[nH]c3ccc(C4CCNCC4)cc3c2C(C)C)ccn1` as the molecule, how does the pIC50 read?
**A.** 7.13

**Q.** With `COc1cc(-c2[nH]c3ccc(C4CCNCC4)cc3c2C(C)C)cc(C)n1` as the molecule, how does the pIC50 read?
**A.** 8.72

**Q.** With `Cc1cc(-c2[nH]c3ccc(C4CCNCC4)cc3c2C(C)C)cc(C2CC2)n1` as the molecule, how does the pIC50 read?
**A.** 7.66

**Q.** With `Cc1cc(-c2[nH]c3cc(C(F)(F)F)c(C4CCNCC4)cc3c2C(C)C)ccn1` as the molecule, how does the pIC50 read?
**A.** 7.77

**Q.** With `Cc1nccc(-c2[nH]c3ccc(C4CCNCC4)cc3c2C(C)C)c1C` as the molecule, how does the pIC50 read?
**A.** 7.55

**Q.** With `CCc1c(-c2ccnc(C)c2)[nH]c2ccc(C3CCNCC3)c(C)c12` as the molecule, how does the pIC50 read?
**A.** 7.85

biological target: T2, Toll-like receptor 8 (Homo sapiens, UniProt Q9NR97); experiment: Antagonist activity at R848 stimulated human TRL8 overexpressed in HEK293 cells assessed as inhibition of NF kappa B/Ap-1 activation preincubated with compound for 30 mins followed by R848 stimulation measured after 22 hrs by SEAP reporter assay; type: cell-based; conditions: not given
T2 sequence (Q9NR97 whole entry): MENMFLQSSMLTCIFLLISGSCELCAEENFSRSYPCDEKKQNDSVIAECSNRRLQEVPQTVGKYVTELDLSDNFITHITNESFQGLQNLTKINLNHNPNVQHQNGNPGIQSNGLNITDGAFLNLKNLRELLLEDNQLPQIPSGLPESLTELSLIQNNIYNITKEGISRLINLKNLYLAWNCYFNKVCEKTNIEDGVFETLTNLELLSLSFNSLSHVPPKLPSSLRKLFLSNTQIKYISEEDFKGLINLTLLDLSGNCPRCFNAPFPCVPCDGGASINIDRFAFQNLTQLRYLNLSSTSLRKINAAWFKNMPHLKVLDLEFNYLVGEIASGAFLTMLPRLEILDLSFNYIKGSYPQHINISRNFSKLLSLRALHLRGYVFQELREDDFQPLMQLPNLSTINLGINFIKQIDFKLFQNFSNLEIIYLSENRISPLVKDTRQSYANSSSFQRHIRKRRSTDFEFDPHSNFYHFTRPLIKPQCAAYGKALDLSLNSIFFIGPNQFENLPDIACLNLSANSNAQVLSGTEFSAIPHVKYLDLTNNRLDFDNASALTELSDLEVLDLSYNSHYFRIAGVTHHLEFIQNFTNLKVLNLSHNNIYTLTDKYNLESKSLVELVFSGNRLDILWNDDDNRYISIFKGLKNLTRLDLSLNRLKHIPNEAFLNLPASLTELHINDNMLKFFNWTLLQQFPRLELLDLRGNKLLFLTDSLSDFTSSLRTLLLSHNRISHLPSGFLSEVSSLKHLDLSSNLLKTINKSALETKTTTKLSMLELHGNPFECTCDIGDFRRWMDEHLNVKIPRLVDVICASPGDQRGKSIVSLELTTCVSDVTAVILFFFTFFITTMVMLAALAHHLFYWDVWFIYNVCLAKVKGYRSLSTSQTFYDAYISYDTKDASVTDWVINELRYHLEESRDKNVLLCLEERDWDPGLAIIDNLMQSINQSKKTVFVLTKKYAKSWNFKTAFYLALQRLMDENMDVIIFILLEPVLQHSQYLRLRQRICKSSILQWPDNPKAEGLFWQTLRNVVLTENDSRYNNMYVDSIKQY

**Q.** With `Cc1cc(-c2[nH]c3cc(C(F)(F)F)c(C4CCNCC4)cc3c2C(C)C)ccn1` as the molecule, how does the pIC50 read?
**A.** 6.38

organism: Homo sapiens; experiment: Selectivity ratio of IC50 for human TLR9 to IC50 for human TLR7; conditions: not given

**Q.** Which Ratio IC50 does the source give for `Cc1cc(-c2[nH]c3ccc(C4CCNCC4)cc3c2C(C)C)ccn1` here?
**A.** 160

**Q.** Which Ratio IC50 does the source give for `Cc1cc(-c2[nH]c3ccc(C4CCNCC4)cc3c2C(C)C)c(C)cn1` here?
**A.** 370

**Q.** Which Ratio IC50 does the source give for `Cc1cc(-c2[nH]c3ccc(C4CCNCC4)cc3c2C(C)C)cc(F)n1` here?
**A.** 1050

**Q.** With `Cc1cnccc1-c1[nH]c2ccc(C3CCNCC3)cc2c1C(C)C` as the molecule, how does the Ratio IC50 read?
**A.** 91

**Q.** Which Ratio IC50 does the source give for `Cc1cc(-c2[nH]c3ccc(C4CCNCC4)cc3c2C(C)C)c(C)c(C)n1` here?
**A.** 130

**Q.** Which Ratio IC50 does the source give for `Cc1cc(-c2[nH]c3cc(C(F)(F)F)c(C4CCNCC4)cc3c2C(C)C)ccn1` here?
**A.** 77

**Q.** Which Ratio IC50 does the source give for `Cc1nccc(-c2[nH]c3ccc(C4CCNCC4)cc3c2C(C)C)c1C` here?
**A.** 25

**Q.** For `CC(C)c1c(-c2ccnc(CO)c2)[nH]c2ccc(C3CCNCC3)cc12`, which Ratio IC50 is on record?
**A.** 19

**Q.** Which Ratio IC50 does the source give for `CCc1c(-c2ccnc(C)c2)[nH]c2c(F)cc(C3CCNCC3)cc12` here?
**A.** 1

system: Mus musculus; experiment: Anti-inflammatory activity against MRL/Ipr Systemic lupus erythematosus mouse model assessed as inhibition of proteinuria at 10 mg/kg, po administered for 8 weeks and measured 24 hrs post final dose relative to control; type: functional; design: scale not given: the % may be the effect or the level left; conditions: time 1368 hrs

**Q.** With `C[C@]12C=CC(=O)C=C1CC[C@@H]1[C@@H]2[C@@H](O)C[C@@]2(C)[C@H]1CC[C@]2(O)C(=O)CO` [PREDNISOLONE] as the molecule, how does the Activity read?
**A.** 77%

system: Mus musculus; experiment: Anti-inflammatory activity against MRL/Ipr Systemic lupus erythematosus mouse model assessed as inhibition of urinary NGAL at 10 mg/kg, po administered for 8 weeks and measured 24 hrs post final dose relative to control; type: functional; design: scale not given: the % may be the effect or the level left; conditions: time 1368 hrs

**Q.** For `C[C@]12C=CC(=O)C=C1CC[C@@H]1[C@@H]2[C@@H](O)C[C@@]2(C)[C@H]1CC[C@]2(O)C(=O)CO` [PREDNISOLONE], which Activity is on record?
**A.** 74%

system: Mus musculus; experiment: Anti-inflammatory activity against MRL/Ipr Systemic lupus erythematosus mouse model assessed as inhibition of anti-Sm/RNP Ab titer at 10 mg/kg, po administered for 8 weeks and measured 24 hrs post final dose relative to control; type: functional; design: scale not given: the % may be the effect or the level left; conditions: time 1368 hrs

**Q.** With `C[C@]12C=CC(=O)C=C1CC[C@@H]1[C@@H]2[C@@H](O)C[C@@]2(C)[C@H]1CC[C@]2(O)C(=O)CO` [PREDNISOLONE] as the molecule, how does the Activity read?
**A.** 79%

system: Mus musculus; experiment: Anti-inflammatory activity against MRL/Ipr Systemic lupus erythematosus mouse model assessed as inhibition of anti-dsDNA Ab titer at 10 mg/kg, po administered for 8 weeks and measured 24 hrs post final dose relative to control; type: functional; design: scale not given: the % may be the effect or the level left; conditions: time 1368 hrs

**Q.** For `C[C@]12C=CC(=O)C=C1CC[C@@H]1[C@@H]2[C@@H](O)C[C@@]2(C)[C@H]1CC[C@]2(O)C(=O)CO` [PREDNISOLONE], which Activity is on record?
**A.** 85%

system: not listed separately; experiment: Toxicity in MRL/Ipr Systemic lupus erythematosus mouse model assessed as relative spleen weight at 10 mg/kg, po administered for 8 weeks and measured 24 hrs post final dose relative to control; type: organism-based; conditions: in vivo, 1368 h

**Q.** With `C[C@]12C=CC(=O)C=C1CC[C@@H]1[C@@H]2[C@@H](O)C[C@@]2(C)[C@H]1CC[C@]2(O)C(=O)CO` [PREDNISOLONE] as the molecule, how does the Activity read?
**A.** 88%

system: not listed separately; experiment: Toxicity in MRL/Ipr Systemic lupus erythematosus mouse model assessed as change in body weight at 10 mg/kg, po administered for 8 weeks and measured 24 hrs post final dose; type: organism-based; conditions: in vivo, 1368 h

**Q.** For `C[C@]12C=CC(=O)C=C1CC[C@@H]1[C@@H]2[C@@H](O)C[C@@]2(C)[C@H]1CC[C@]2(O)C(=O)CO` [PREDNISOLONE], which Activity is on record?
**A.** Toxic
